Consider six molecules from publication PMC6292510 (Molecular pharmaceutics, 2017).

Like-named read-outs stand apart in the source and are kept apart here.

The target in data set [1] is human Ether-a-go-go-Related Gene (hERG) potassium channel (Homo sapiens, UniProt Q12809). Description: Predictor hERG Fluorescence Polarization Assay. It is filed as binding.
Data set [2] deals with cytochrome P450 3A4 (CYP3A4) (Homo sapiens, UniProt P08684). Description: P450-Glo CYP3A4. It is filed as in vitro ADME. The settings on record: 400 μM (parent hexosamines).
cytochrome P450 3A4 (CYP3A4), sequence (P08684 whole entry): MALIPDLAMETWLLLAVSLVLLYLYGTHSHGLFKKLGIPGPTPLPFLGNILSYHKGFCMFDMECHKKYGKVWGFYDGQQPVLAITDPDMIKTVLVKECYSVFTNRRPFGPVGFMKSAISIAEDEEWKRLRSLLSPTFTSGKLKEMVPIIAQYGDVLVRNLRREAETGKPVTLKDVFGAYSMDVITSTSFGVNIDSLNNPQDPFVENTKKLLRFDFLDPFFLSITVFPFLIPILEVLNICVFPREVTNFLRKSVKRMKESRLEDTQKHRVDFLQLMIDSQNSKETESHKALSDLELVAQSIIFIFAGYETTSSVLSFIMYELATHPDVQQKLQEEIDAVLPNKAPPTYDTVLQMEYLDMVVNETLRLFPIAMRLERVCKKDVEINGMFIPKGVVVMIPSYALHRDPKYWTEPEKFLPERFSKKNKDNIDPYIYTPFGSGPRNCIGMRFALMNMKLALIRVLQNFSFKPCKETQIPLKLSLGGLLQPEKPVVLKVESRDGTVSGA
Data set [3] relates to neonatal rat ventricular cardiomyocytes (NRVCMs). Nature of the data set: MTT viability assay of neonatal rat ventricular cardiomyocytes. It is filed as cell-based. The settings on record: 0, 50, 100 and 200 µM; 24 or 48 h of analog exposure. (Formazan colour is commonly taken as a measure of viable cells.)
The test system is the same in data set [4]. Nature of the data set: LIVE/DEAD assay of neonatal rat ventricular cardiomyocytes. Conditions: 50 μM; 12, 24 and 48 h; apparent beginning 12 to 24 h. It is filed as cell-based.
A short description of data set [5]: Chromatographic hydrophobicity indexing. It is filed as physicochemical. The settings on record: C18 RP-HPLC, rank among the test compounds.
Where [6] appears, read: read-out: hERG inhibition, concentration range, Fig. 8B & C.

human Ether-a-go-go-Related Gene (hERG) potassium channel, sequence (Q12809 whole entry): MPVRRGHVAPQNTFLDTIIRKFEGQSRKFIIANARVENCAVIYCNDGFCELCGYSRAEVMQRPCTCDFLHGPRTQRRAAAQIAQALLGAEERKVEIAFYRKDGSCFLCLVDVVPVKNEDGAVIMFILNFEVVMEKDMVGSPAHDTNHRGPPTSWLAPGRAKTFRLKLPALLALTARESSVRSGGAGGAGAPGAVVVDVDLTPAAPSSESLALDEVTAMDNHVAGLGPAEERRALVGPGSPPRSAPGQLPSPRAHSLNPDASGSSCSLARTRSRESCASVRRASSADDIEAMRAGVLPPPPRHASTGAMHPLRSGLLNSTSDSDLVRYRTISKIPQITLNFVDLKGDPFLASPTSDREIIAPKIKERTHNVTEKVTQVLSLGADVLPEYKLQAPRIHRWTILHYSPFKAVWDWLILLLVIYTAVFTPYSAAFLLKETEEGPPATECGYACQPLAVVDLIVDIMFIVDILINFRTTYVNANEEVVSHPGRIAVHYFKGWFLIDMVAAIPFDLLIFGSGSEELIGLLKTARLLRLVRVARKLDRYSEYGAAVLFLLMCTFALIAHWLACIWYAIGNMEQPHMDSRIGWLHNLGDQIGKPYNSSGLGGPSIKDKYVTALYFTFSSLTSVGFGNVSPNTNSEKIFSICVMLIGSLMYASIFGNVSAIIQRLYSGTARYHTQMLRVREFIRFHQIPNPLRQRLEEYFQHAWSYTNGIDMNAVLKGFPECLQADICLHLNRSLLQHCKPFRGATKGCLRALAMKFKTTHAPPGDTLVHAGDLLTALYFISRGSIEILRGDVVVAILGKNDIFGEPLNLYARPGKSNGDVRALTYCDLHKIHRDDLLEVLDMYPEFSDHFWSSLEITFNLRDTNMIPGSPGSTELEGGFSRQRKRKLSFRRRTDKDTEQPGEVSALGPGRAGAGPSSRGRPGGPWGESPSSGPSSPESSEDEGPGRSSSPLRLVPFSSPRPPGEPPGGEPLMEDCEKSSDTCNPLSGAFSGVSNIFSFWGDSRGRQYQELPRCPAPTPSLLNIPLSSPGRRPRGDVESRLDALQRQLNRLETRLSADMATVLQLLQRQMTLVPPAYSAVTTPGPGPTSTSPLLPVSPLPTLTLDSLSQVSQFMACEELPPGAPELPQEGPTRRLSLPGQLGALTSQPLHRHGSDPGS

Consider `CCCC(=O)OC1O[C@H](CO)[C@@H](OC(=O)CCC)[C@H](OC(=O)CCC)[C@H]1NC(=O)CN=[N+]=[N-]` (some centres unmarked) [1,3,4-O-Bu3GlcNAz], for which, in data set [1] (read-out: hERG inhibition IC50, fluorescence polarization, doses 69.7 pM to 1 mM), the IC50 was 2850 nM. For the molecule `CC(=O)N[C@H]1[C@@H](O)[C@H](O)[C@@H](CO)O[C@@H]1O` [ManNAc], the “effect on CYP3A4” value in data set [2] is “negligible effect”. Consider `CCCC(=O)OC[C@H]1OC(O)[C@H](NC(C)=O)[C@@H](OC(=O)CCC)[C@@H]1OC(=O)CCC` (some centres unmarked) [3,4,6-O-Bu3GlcNAc], for which the “NRVCM cell viability (MTT)” value in data set [3] is listed as “significantly reduced NRVCM cell viability”. Further, the IC50 in data set [1] (setting [6]) was 1000 to 100000 nM. The “cardiomyocyte cell death (LIVE/DEAD)” value in data set [4] is listed as “Significantly higher cell death”. In the case of `CCCC(=O)OC1OC(CO)[C@@H](OC(=O)CCC)[C@H](OC(=O)CCC)C1NC(=O)CN=[N+]=[N-]` (some centres unmarked) [1,3,4-O-Bu3ManNAz], the “lipophilicity rank by experimental CHI score” value in data set [5] was “second highest lipophilicity”. Regarding `CCCC(=O)OC1OC(CO)[C@@H](OC(=O)CCC)[C@H](OC(=O)CCC)C1NC(C)=O` (some centres unmarked) [1,3,4-O-Bu3GlcNAc], the “hERG inhibition (detectable or not)” value in data set [1] (up to 1 mM, the highest concentration tested) is on record as “no detectable inhibition”.

As for `CCCC(=O)OC[C@H]1OC(O)[C@@H](NC(C)=O)[C@@H](OC(=O)CCC)[C@@H]1OC(=O)CCC` (some centres unmarked) [3,4,6-O-Bu3ManNAc], the “NRVCM cell viability (MTT)” value in data set [3] is “significantly reduced NRVCM cell viability”. For the same molecule, the “fold greater hERG potency versus 3,4,6-O-Bu3GlcNAc” value in data set [1] (ManNAc analog versus GlcNAc analog) is on record as ~ 13 fold. Moreover, the IC50 in data set [1] (setting [6]) was 1000 to 100000 nM. The “cardiomyocyte cell death (LIVE/DEAD)” value in data set [4] is “Significantly higher cell death”.
